The text below walks through data of patent US8586822B2, “Methods for producing a non human model for aortic aneurysm” (INSERM (Institut National de la Sante et de la Recherche …, priority 2007, dated 2013).

One assay deals with AAA. The following applies: in vivo; cited from earlier work.
Assay [1] relates to CD28− mice treated with angiotensin II. Put plainly: CD28− mice treated with angiotensin II and trichostatin. It counts as in vivo, mouse. Particulars: 1 mg/kg/day for 14 days, angiotensin II-infused CD28− mice. On the procedure: Baseline blood pressure measurements were determined on 5 consecutive days. After these baseline recordings, an osmotic minipump (Alzet Model 2004; DURECT) infusing Angiotensin II (Ang II) (Sigma, St. Louis, Mo.) at a rate of 1,000 ng/kg/min was implanted s.c. and blood pressure measurements continued for 28 days to verify continuous hypertension. The animals ingested either a normal diet containing 0.4% sodium chloride or a high salt diet with 5% sodium chloride (SDS) to accentuate hypertension and kidney injury. All animals studied were between 8 and 14 wk old. The protocol followed the French Department of Agriculture and the National Institute of Health guidelines for animal care and protection. For both strains, all experiments used age- and sex-matched wild-type and genetically altered animals with similar genetic background (C57Bl/6J background). Normal C57Bl/6J and CD28 deficient animals were obtained from Charles River Laboratories. B7.1/B7.2 (CD80/CD86) deficient animals were obtained from Dr. Benoit Salomon (Université Pierre et Marie Curie-CNRS U7087 laboratory, Paris). Anti-pan-TGF-beta antibody (clone 2G7) was administrated thrice a week i.p. at the dose of 500 μg/mouse for two weeks, then at the dose of 150 μg/mouse for the following two weeks. […]

Turning to `CC[C@H]1OC(=O)[C@H](C)[C@@H](O[C@H]2C[C@@](C)(OC)[C@@H](O)[C@H](C)O2)[C@H](C)[C@@H](O[C@@H]2O[C@H](C)C[C@H](N(C)C)[C@H]2O)[C@](C)(O)C[C@@H](C)/C(=N\OCOCCOC)[C@H](C)[C@@H](O)[C@]1(C)O` [roxithromycin], the “effects in AAA” value in the assay on AAA is recorded as “modest effects”.
Turning to `CC(/C=C/C(=O)NO)=C\[C@@H](C)C(=O)c1ccc(N(C)C)cc1` [trichostatin], the aneurysm result in assay [1] was “prevented aneurysm”.
